By EC50 is commonly meant the concentration giving half of the maximal effect. Read a high EC50 as a need for much substance.

Molecules are shown by their SMILES. Structures can show the parent of a compound that is named as a salt. Where only a bound is given, the exact number is not on record here.

We go through 19 molecules from US9487510B2, “Substituted heterocyclic acetamides as kappa opioid receptor (KOR) agonists” (Dr. Reddy's Laboratories Ltd., priority 2012, dated 2016).

The assay addresses human KOR receptor (Homo sapiens, UniProt P41145). Put plainly: IP-One HTRF assay, potency of KOR agonists, dose-response in transiently transfected COS-7 cells. Format: cell-based. Background: Time-resolved FRET reads energy transfer from a long-lived donor to a nearby acceptor.

human KOR receptor, sequence (P41145 whole entry): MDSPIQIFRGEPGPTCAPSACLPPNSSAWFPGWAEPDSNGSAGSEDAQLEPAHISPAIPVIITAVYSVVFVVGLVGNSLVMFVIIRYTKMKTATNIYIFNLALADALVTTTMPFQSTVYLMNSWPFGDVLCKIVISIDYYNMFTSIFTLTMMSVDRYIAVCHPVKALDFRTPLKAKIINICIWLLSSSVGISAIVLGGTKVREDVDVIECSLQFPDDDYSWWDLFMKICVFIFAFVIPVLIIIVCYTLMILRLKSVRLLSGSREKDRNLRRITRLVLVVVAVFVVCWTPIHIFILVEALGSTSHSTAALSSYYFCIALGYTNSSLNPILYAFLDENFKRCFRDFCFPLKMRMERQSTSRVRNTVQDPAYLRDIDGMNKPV

For `CC(C)(C)OC(=O)COc1cccc(C(CN2CC[C@H](O)C2)NC(=O)Cc2ccc3oc(=O)[nH]c3c2)c1` (mixture of isomers) [Example 74, (S)-tert-butyl 2-(3-(2-(3-hydroxypyrrolidin-1-yl)-1-(2-(2-oxo-2,3-dihydrobenzo[d]oxazol-5-yl)acetamido)ethyl)phenoxy)acetate], the concentration giving a half-maximal response (EC50) was not above 50 nM.

In the case of `CN(C(=O)Cc1ccc2oc(=O)[nH]c2c1)C(CN1CC[C@H](O)C1)c1cccc(OCC#N)c1` (mixture of isomers) [Example 76, N-(1-(3-(cyanomethoxy)phenyl)-2-(3-hydroxypyrrolidin-1-yl)ethyl)-N-methyl-2-(2-oxo-2,3-dihydrobenzo[d]oxazol-5-yl)acetamide], the EC50 was not above 50 nM.

With `O=C(O)COc1cccc(C(CN2CC[C@H](O)C2)NC(=O)Cc2ccc3c(c2)NC(=O)C3)c1` (mixture of isomers) [Example 100, (S)-2-(3-(2-(3-hydroxypyrrolidin-1-yl)-1-(2-(2-oxoindolin-6-yl)acetamido)ethyl)phenoxy)acetic acid hydrochloride], the EC50 is not above 50 nM.

`O=C(O)COc1cccc(C(CN2CC[C@H](O)C2)NC(=O)Cc2ccc3oc(=O)[nH]c3c2)c1` (mixture of isomers) [Example 101, (S)-2-(3-(2-(3-hydroxypyrrolidin-1-yl)-1-(2-(2-oxo-2,3-dihydrobenzo[d]oxazol-5-yl)acetamido)ethyl)phenoxy)acetic acid] yielded an EC50 not above 50 nM.

`CN(C(=O)Cc1ccc2oc(=O)[nH]c2c1)C(CN1CC[C@H](O)C1)c1cccc(OCc2nn[nH]n2)c1` (stereo in doubt) [Example 105, (R)-N-(1-(3-((2H-tetrazol-5-yl)methoxy)phenyl)-2-(3-hydroxypyrrolidin-1-yl)ethyl)-N-methyl-2-(2-oxo-2,3-dihydrobenzo[d]oxazol-5-yl)acetamide] had an EC50 not above 50 nM.

Molecule `CN(C(=O)Cc1ccc2c(c1)NC(=O)CS2(=O)=O)[C@H](CN1CCC(O)C1)c1ccccc1` (stereo in doubt) [Example 120, 2-(1,1-dioxido-3-oxo-3,4-dihydro-2H-benzo[b][1,4]thiazin-6-yl)-N-((S)-2-((S)-3-hydroxypyrrolidin-1-yl)-1-phenylethyl)-N-methylacetamide] registered a 50% effective concentration (EC50) not above 50 nM.

Turning to `CC(C)CN(C(=O)Cc1ccc2c(c1)NC(=O)CS2(=O)=O)[C@H](CN1CCC(O)C1)c1cccc(OC(F)(F)F)c1` (stereo in doubt) [Example 140, 2-(1,1-dioxido-3-oxo-3,4-dihydro-2H-benzo[b][1,4]thiazin-6-yl)-N-((S)-2-((S)-3-hydroxypyrrolidin-1-yl)-1-(3-(trifluoromethoxy)phenyl)ethyl)-N-isobutylacetamide], the half-maximal effective concentration (EC50) was not above 50 nM.

As for `O=C1CS(=O)(=O)c2ccc(CC(=O)N(CC3CC3)[C@H](CN3CCC(O)C3)c3cccc(OC(F)(F)F)c3)cc2N1` (stereo in doubt) [Example 141, N-(cyclopropylmethyl)-2-(1,1-dioxido-3-oxo-3,4-dihydro-2H-benzo[b][1,4]thiazin-6-yl)-N-((S)-2-((S)-3-hydroxypyrrolidin-1-yl)-1-(3-(trifluoromethoxy)phenyl)ethyl)acetamide], the concentration giving a half-maximal response (EC50) is not above 50 nM.

Consider `CN(C(=O)Cc1ccc2c(c1)NC(=O)CS2(=O)=O)C(CN1CC[C@H](O)C1)c1ccc(OC(F)(F)F)cc1` (stereo in doubt) [Example 142, 2-(1,1-dioxido-3-oxo-3,4-dihydro-2H-benzo[b][1,4]thiazin-6-yl)-N-((S)-2-((S)-3-hydroxypyrrolidin-1-yl)-1-(4-(trifluoromethoxy)phenyl)ethyl)-N-methylacetamide], for which the EC50 is not above 50 nM.

In the case of `Cc1cc(C)cc([C@@H](CN2CCC(O)C2)N(C)C(=O)Cc2ccc3c(c2)NC(=O)CS3(=O)=O)c1` (stereo in doubt) [Example 147, N-((S)-1-(3,5-dimethylphenyl)-2-((S)-3-hydroxypyrrolidin-1-yl)ethyl)-2-(1,1-dioxido-3-oxo-3,4-dihydro-2H-benzo[b][1,4]thiazin-6-yl)-N-methylacetamide], the concentration for a half-maximal effect (EC50) was not above 50 nM.

In turn, `CN(C(=O)Cc1ccc2c(c1)NC(=O)CS2(=O)=O)C(CN1CCC(O)C1)c1cccc(C2CC2)c1` (stereo in doubt) [Example 150, N-((S)-1-(3-cyclopropylphenyl)-2-((S)-3-hydroxypyrrolidin-1-yl)ethyl)-2-(1,1-dioxido-3-oxo-3,4-dihydro-2H-benzo[b][1,4]thiazin-6-yl)-N-methylacetamide] yielded an EC50 not above 50 nM.

As for `CN(C(=O)Cc1ccc2c(c1)CC(=O)N2)C(CN1CCC(O)C1)c1ccccc1` (stereo in doubt) [Example 161, N-((S)-2-((S)-3-hydroxypyrrolidin-1-yl)-1-phenylethyl)-N-methyl-2-(2-oxoindolin-5-yl)acetamide], the EC50 is not above 50 nM.

`O=C1COc2ccc(CC(=O)N[C@H](CN3CC[C@H](O)C3)c3ccccc3)cc2N1` [Example 2, N-[(1S)-2-[(3S)-3-hydroxypyrrolidin-1-yl]-1-phenylethyl]-2-(3-oxo-3,4-dihydro-2H-1,4-benzoxazin-6-yl)acetamide]: the EC50 is not above 50 nM.

In turn, `O=C(Cc1ccc2sc(=O)[nH]c2c1)N[C@H](CN1CCCC1)c1ccccc1` [Example 4, (S)-2-(2-oxo-2,3-dihydrobenzo[d]thiazol-5-yl)-N-(1-phenyl-2-(pyrrolidin-1-yl)ethyl)acetamide] had an EC50 of 51 to 100 nM.

For the molecule `CN(C(=O)Cc1ccc2c(c1)NC(=O)CS2(=O)=O)[C@H](CN1CC[C@H](O)C1)c1cccc(OC(F)(F)F)c1` [Example 5, 2-(1,1-dioxido-3-oxo-3,4-dihydro-2H-benzo [b][1,4]thiazin-6-yl)-N-((S)-2-((S)-3-hydroxypyrrolidin-1-yl)-1-(3-(trifluoromethoxy)phenyl)ethyl)-N-methylacetamide], the EC50 is not above 50 nM.

As to `CN(C(=O)Cc1ccc2c(c1)NC(=O)CS2(=O)=O)[C@H](CN1CC[C@H](O)C1)c1cccc(C#N)c1` [Example 6, N-((S)-1-(3-cyanophenyl)-2-((S)-3-hydroxypyrrolidin-1-yl)ethyl)-2-(1,1-dioxido-3-oxo-3,4-dihydro-2H-benzo[b][1,4]thiazin-6-yl)-N-methylacetamide], the EC50 is not above 50 nM.

As to `CN(C(=O)Cc1ccc2c(c1)NC(=O)CS2)[C@H](CN1CC[C@H](O)C1)c1ccccc1` [Example 7, N-((S)-2-((S)-3-hydroxypyrrolidin-1-yl)-1-phenylethyl)-N-methyl-2-(3-oxo-3,4-dihydro-2H-benzo[b][1,4]thiazin-6-yl)acetamide], the concentration giving a half-maximal response (EC50) is not above 50 nM.

For `CN(C(=O)Cc1ccc2c(c1)S(=O)(=O)NC2=O)[C@H](CN1CC[C@H](O)C1)c1ccccc1` [Example 8, 2-(1,1-dioxido-3-oxo-2,3-dihydrobenzo[d]isothiazol-6-yl)-N-((S)-2-((S)-3-hydroxypyrrolidin-1-yl)-1-phenylethyl)-N-methylacetamide], the concentration for a half-maximal effect (EC50) is not below 1000 nM.

Take `CN(C(=O)Cc1ccc2c(c1)NS(=O)(=O)C2)[C@H](CN1CC[C@H](O)C1)c1cccc(C(F)(F)F)c1` [Example 9, 2-(2,2-dioxido-1,3-dihydrobenzo[c]isothiazol-6-yl)-N-((S)-2-((S)-3-hydroxypyrrolidin-1-yl)-1-(3-(trifluoromethyl)phenyl)ethyl)-N-methylacetamide]: the EC50 lay within 101 to 1000 nM.
